In patent US10544130B2, “Metallo-beta-lactamase inhibitors” (priority 2015, dated 2020):
Where a name gives a salt, the structure may show the parent alone.

Each compound was assayed on Serratia marcescens expressing IMP-1 (CL5741). Conditions: with imipenem 1 μg/ml; 95% inhibition of bacterial growth.
Type: cell-based
Experimental: Antibiotic Potentiation Activity: Determination of Synergistic Concentration
The bacterial strains tested included the clinical strains Escherichia coli expressing NDM-1 (CLB30005, CLB30016), Serratia marcescens expressing IMP-1 (CL5741), and Klebsiella pneumoniae expressing VIM-1 (IHMA599644). Inhibitor activity was measured in the presence and absence of imipenem in a 384-well microplate.
The clinical strains CLB30016, CL5741 and IHMA599644 were grown on trypticase soy agar containing 5% sheep's blood. The bacteria on agar plates were incubated at 35° C. with humidity overnight. The following day, individual colonies from each clinical strain were picked and resuspended in 5 ml saline to attain an OD600 of 0.14, 0.11, 0.15 and 0.13, for CLB30016, CL5741 and IHMA599644, respectively. These were further diluted 1:100 into 1.1× CAMHB and used to inoculate the test wells as described below.
Imipenem in 10 mM 3-(N-morpholino)propanesulfonic acid (MOPS, pH 7) was stored in single use aliquots at −80° C. […] On the day of the assay, 4 μl of antibiotic was added to 45 ul of bacteria followed by 1 μl of test compound and mixed by pipetting and with an orbital shaker. The concentration of antibiotic used in the assay was 1 μg/ml. Microplates were covered and incubated at 35° C. for 22 hours to 24 hours. At the end of the incubation, absorbance was determined using a spectrophotometer.

Point of comparison: `Nc1ccc(-c2ccc(S(=O)(=O)N[C@H]3CNC[C@H]3O)c(S(N)(=O)=O)c2-c2nn[nH]n2)cn1` [Example 410, 4-(6-aminopyridin-3-yl)-N^1-((3S,4R)-4-hydroxypyrrolidin-3-yl)-3-(2H-tetrazol-5-yl)benzene-1,2-disulfonamide], “Serratia marcescens (IMP-1) MITC95” value 0.7813 µM. Against it:
- Nc1ncc(-c2ccc(S(=O)(=O)N[C@@H]3CCNC3)c(S(N)(=O)=O)c2-c2nn[nH]n2)s1 [Example 284, (R)-4-(2-aminothiazol-5-yl)-N1-(pyrrolidin-3-yl)-3-(2H-tetrazol-5-yl)benzene-1,2-disulfonamide] — the same, 0.7813 µM
- Nc1ccc2cccc(-c3ccc(S(=O)(=O)N[C@@H]4CCNC4)c(S(N)(=O)=O)c3-c3nn[nH]n3)c2n1 [Example 286, (R)-4-(2-aminoquinolin-8-yl)-N1-(pyrrolidin-3-yl)-3-(2H-tetrazol-5-yl)benzene-1,2-disulfonamide] — the same, 0.7813 µM
- C[C@H](CN)NS(=O)(=O)c1ccc(-c2ccc(N)nc2)c(-c2nn[nH]n2)c1S(N)(=O)=O [Example 393, (R)—N^1-(1-aminopropan-2-yl)-4-(6-aminopyridin-3-yl)-3-(2H-tetrazol-5-yl)benzene-1,2-disulfonamide] — within 1.5-fold, 1.042 µM
- C[C@@H](CN)NS(=O)(=O)c1ccc(-c2cc(F)cc3[nH]c(N)nc23)c(-c2nn[nH]n2)c1S(N)(=O)=O [Example 397, (S)-4-(2-amino-6-fluoro-1H-benzo[d]imidazol-4-yl)-N^1-(1-aminopropan-2-yl)-3-(2H-tetrazol-5-yl)benzene-1,2-disulfonamide] — the same, 0.7813 µM
- NCCCNS(=O)(=O)c1ccc(-c2cc(F)cc3[nH]c(N)nc23)c(-c2nn[nH]n2)c1S(N)(=O)=O [Example 402, 4-(2-amino-6-fluoro-1H-benzo[d]imidazol-4-yl)-N^1-(3-aminopropyl)-3-(2H-tetrazol-5-yl)benzene-1,2-disulfonamide] — the same, 0.7813 µM
- NC[C@@H](CO)NS(=O)(=O)c1ccc(-c2ccc(N)nc2)c(-c2nn[nH]n2)c1S(N)(=O)=O [Example 409, (S)-N^1-(1-amino-3-hydroxypropan-2-yl)-4-(6-aminopyridin-3-yl)-3-(2H-tetrazol-5-yl)benzene-1,2-disulfonamide] — 2-fold higher, 1.563 µM
- Nc1ccc(-c2ccc(S(=O)(=O)N[C@H]3CN[C@H](CO)C3)c(S(N)(=O)=O)c2-c2nn[nH]n2)cn1 [Example 411, 4-(6-aminopyridin-3-yl)-N^1-((3R,5S)-5-(hydroxymethyl)pyrrolidin-3-yl)-3-(2H-tetrazol-5-yl)benzene-1,2-disulfonamide] — 2-fold higher, 1.563 µM
- Nc1ccc(-c2ccc(S(=O)(=O)N[C@H]3CNC[C@H]3N)c(S(N)(=O)=O)c2-c2nn[nH]n2)cn1 [Example 413, 4-(6-aminopyridin-3-yl)-N^1-((3S,4R)-4-aminopyrrolidin-3-yl)-3-(2H-tetrazol-5-yl)benzene-1,2-disulfonamide] — 2-fold higher, 1.563 µM
- NC[C@@H](N)CNS(=O)(=O)c1ccc(-c2ccc(N)nc2)c(-c2nn[nH]n2)c1S(N)(=O)=O [Example 416, (R)-4-(6-aminopyridin-3-yl)-N^1-(2,3-diaminopropyl)-3-(2H-tetrazol-5-yl)benzene-1,2-disulfonamide] — 2-fold higher, 1.563 µM
- NC[C@@H](O)CNS(=O)(=O)c1ccc(-c2ccc3nccn3c2)c(-c2nn[nH]n2)c1S(N)(=O)=O [Example 420, (R)-N^1-(3-amino-2-hydroxypropyl)-4-(imidazo[1,2-a]pyridin-6-yl)-3-(2H-tetrazol-5-yl)benzene-1,2-disulfonamide] — 2-fold higher, 1.563 µM
- C[C@@H](N)CNS(=O)(=O)c1ccc(-c2ccc3nccn3c2)c(-c2nn[nH]n2)c1S(N)(=O)=O [Example 423, (R)-N^1-(2-aminopropyl)-4-(imidazo[1,2-a]pyridin-6-yl)-3-(2H-tetrazol-5-yl)benzene-1,2-disulfonamide] — the same, 0.7813 µM

The compounds below were run on Pseudomonas aeruginosa PAO1 MB9798 (efflux+, IMP-1). Conditions: fold difference between efflux + (MB9798) and efflux − (MB9799) strains; imipenem at 2 μg/mL.
Outline: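 Isogenic PAO1 pair (efflux+ MB9798, efflux− MB9799, both IMP-1) tested by microbroth MIC with fixed imipenem and/or ceftazidime, usually at CLSI breakpoint, plus fixed class A/C inhibitor against AmpC. MBL inhibitor titrated; concentration restoring susceptibility recorded and fold difference between strains taken as efflux extent.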

For `C[N+](C)(C)CCNS(=O)(=O)c1ccc(-c2cccc3sc(N)nc23)c(-c2nnn[nH]2)c1S(N)(=O)=O` [Example 391, 2-({[4-(2-amino-1,3-benzothiazol-4-yl)-2-sulfamoyl-3-(1H-tetrazol-5-yl)phenyl]sulfonyl}amino)-N,N,N-trimethylethanaminium trifluoroacetate], the Efflux ratio was 1.00.

Same assay, conditions: ratio MITC95 PA 9798/MITC95 PA 9799; imipenem at 2 μg/mL

Point of comparison: `NC[C@@H](N)CNS(=O)(=O)c1ccc(-c2cccc3ccc(N)nc23)c(-c2nn[nH]n2)c1S(N)(=O)=O` [Example 376, (R)-4-(2-aminoquinolin-8-yl)-N1-(2,3-diaminopropyl)-3-(2H-tetrazol-5-yl)benzene-1,2-disulfonamide], Efflux ratio 1.00. Against it:
- Nc1ccc(-c2ccc(S(=O)(=O)NC[C@H]3CNCCN3)c(S(N)(=O)=O)c2-c2nn[nH]n2)cn1 [Example 315, (R)-4-(6-aminopyridin-3-yl)-N1-(piperazin-2-ylmethyl)-3-(1H-tetrazol-5-yl)benzene-1,2-disulfonamide] — the same, 1.00
- Nc1ncccc1-c1ccc(S(=O)(=O)NC[C@H]2CNCCN2)c(S(N)(=O)=O)c1-c1nn[nH]n1 [Example 316, (R)-4-(2-aminopyridin-3-yl)-N1-(piperazin-2-ylmethyl)-3-(1H-tetrazol-5-yl)benzene-1,2-disulfonamide] — higher, 2.00
- C[C@H](CN)NS(=O)(=O)c1ccc(-c2cccc(N)n2)c(-c2nn[nH]n2)c1S(N)(=O)=O [Example 318, (R)—N1-(1-aminopropan-2-yl)-4-(6-aminopyridin-2-yl)-3-(2H-tetrazol-5-yl) benzene-1,2-disulfonamide] — the same, 1.00
- Nc1ccc2cccc(-c3ccc(S(=O)(=O)N[C@@H]4CNC[C@@H]4N)c(S(N)(=O)=O)c3-c3nn[nH]n3)c2n1 [Example 319, N^1-((3R,4S)-4-aminopyrrolidin-3-yl)-4-(2-aminoquinolin-8-yl)-3-(2H-tetrazol-5-yl)benzene-1,2-disulfonamide] — the same, 1.00
- NCCNS(=O)(=O)c1ccc(-c2cccc(C(=O)NC[C@@H](N)CO)c2N)c(-c2nn[nH]n2)c1S(N)(=O)=O [Example 332, (R)-2-amino-N-(2-amino-3-hydroxypropyl)-4′-(N-(2-aminoethyl)sulfamoyl)-3′-sulfamoyl-2′-(2H-tetrazol-5-yl)-[1,1′-biphenyl]-3-carboxamide] — the same, 1.00
- NCCNS(=O)(=O)c1ccc(-c2cccc(C(=O)NC[C@H](N)CO)c2N)c(-c2nn[nH]n2)c1S(N)(=O)=O [Example 333, (S)-2-amino-N-(2-amino-3-hydroxypropyl)-4′-(N-(2-aminoethyl)sulfamoyl)-3′-sulfamoyl-2′-(2H-tetrazol-5-yl)-[1,1′-biphenyl]-3-carboxamide] — the same, 1.00
- NCCNS(=O)(=O)c1ccc(C2CCC[C@H](N)C2)c(-c2nn[nH]n2)c1S(N)(=O)=O (stereo partly drawn) [Example 342, 4-((3S)-3-aminocyclohexyl)-N1-(2-aminoethyl)-3-(2H-tetrazol-5-yl)benzene-1,2-disulfonamide] — higher, 4.00
- NCCNS(=O)(=O)c1ccc(-c2ccc3ncn(CCN)c3c2)c(-c2nn[nH]n2)c1S(N)(=O)=O [Example 348, N^1-(2-aminoethyl)-4-(1-(2-aminoethyl)-1H-benzo[d]imidazol-6-yl)-3-(2H-tetrazol-5-yl)benzene-1,2-disulfonamide] — higher, 4.00
- Nc1ccc(-c2ccc(S(=O)(=O)NC[C@@H](N)CO)c(S(N)(=O)=O)c2-c2nn[nH]n2)cn1 [Example 365, (R)—N1-(2-amino-3-hydroxypropyl)-4-(6-aminopyridin-3-yl)-3-(2H-tetrazol-5-yl) benzene-1,2-disulfonamide] — higher, 2.00
- Nc1ccc(-c2ccc(S(=O)(=O)NC[C@]3(N)CCNC3)c(S(N)(=O)=O)c2-c2nn[nH]n2)cn1 [Example 368, (S)-4-(6-aminopyridin-3-yl)-N1-((3-aminopyrrolidin-3-yl)methyl)-3-(2H-tetrazol-5-yl)benzene-1,2-disulfonamide] — the same, 1.00
- Nc1ccc(-c2ccc(S(=O)(=O)NC[C@@]3(N)CCNC3)c(S(N)(=O)=O)c2-c2nn[nH]n2)cn1 [Example 369, (R)-4-(6-aminopyridin-3-yl)-N1-((3-aminopyrrolidin-3-yl)methyl)-3-(2H-tetrazol-5-yl)benzene-1,2-disulfonamide] — the same, 1.00
- NC[C@H](N)CNS(=O)(=O)c1ccc(-c2cccc3ccc(N)nc23)c(-c2nn[nH]n2)c1S(N)(=O)=O [Example 371, (S)-4-(2-aminoquinolin-8-yl)-N1-(2,3-diaminopropyl)-3-(2H-tetrazol-5-yl)benzene-1,2-disulfonamide] — the same, 1.00
